Assay results published in the supplement of paper PMC6045584.
± gives the standard deviation of the averaged measurements.

Columns and labels:
BEZ-235 = compound: Cn1c(=O)n(-c2ccc(C(C)(C)C#N)cc2)c2c3cc(-c4cnc5ccccc5c4)ccc3ncc21 [BEZ-235]; test: surviving fraction relative to DMSO-only wells; higher = less growth inhibition; conditions: exposure time: 5 days
Method in brief: (§1)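 Tumour cell lines in log phase were plated in 384-well plates at 250–500 cells per well, then, after 24 hours, exposed continuously for five days to inhibitors at 0.5, 1, 5, 10, 50, 100, 500 and 1000 nM. Viability came from CellTiter-Glo luminescence, and surviving fraction is that signal normalised to the median of DMSO-only wells. Plates were read after 10 minutes at room temperature, and each line, screened three times, was kept only when replicate Pearson r was >0.7 and median Z' was >0.3.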

LENVATINIB = compound: COc1cc2nccc(Oc3ccc(NC(=O)NC4CC4)c(Cl)c3)c2cc1C(N)=O [LENVATINIB]; test: as above; conditions: exposure time: 5 days
Method in brief: as §1

| Test System | surviving fraction (BEZ-235; 0.5 nM) | surviving fraction (BEZ-235; 1 nM) | surviving fraction (BEZ-235; 5 nM) | surviving fraction (BEZ-235; 10 nM) | surviving fraction (BEZ-235; 50 nM) | surviving fraction (BEZ-235; 100 nM) | surviving fraction (BEZ-235; 500 nM) | surviving fraction (BEZ-235; 1000 nM) | surviving fraction (LENVATINIB; 0.5 nM) | surviving fraction (LENVATINIB; 1 nM) | surviving fraction (LENVATINIB; 5 nM) | surviving fraction (LENVATINIB; 10 nM) | surviving fraction (LENVATINIB; 50 nM) | surviving fraction (LENVATINIB; 100 nM) | surviving fraction (LENVATINIB; 500 nM) | surviving fraction (LENVATINIB; 1000 nM) |
| --- | --- | --- | --- | --- | --- | --- | --- | --- | --- | --- | --- | --- | --- | --- | --- | --- |
| MDAMB436 BREAST | 0.94 ± 0.084 | 0.898 ± 0.085 | 0.876 ± 0.078 | 0.852 ± 0.088 | 0.545 ± 0.016 | 0.51 ± 0.047 | 0.392 ± 0.022 | 0.356 ± 0.013 | 0.949 ± 0.032 | 1.01 ± 0.11 | 0.946 ± 0.04 | 0.976 ± 0.039 | 1.01 ± 0.11 | 0.907 ± 0.015 | 1.04 ± 0.077 | 0.932 ± 0.033 |
| MDAMB453 BREAST | 1.05 ± 0.066 | 1.05 ± 0.022 | 1.09 ± 0.015 | 1.05 ± 0.057 | 0.574 ± 0.046 | 0.359 ± 0.025 | 0.197 ± 0.011 | 0.169 ± 0.012 | 1.11 ± 0.035 | 1.11 ± 0.068 | 1.12 ± 0.019 | 1.13 ± 0.043 | 1.12 ± 0.037 | 1.15 ± 0.049 | 0.663 ± 0.016 | 0.52 ± 0.035 |
| MDAMB468 BREAST | 1.08 ± 0.038 | 1.11 ± 0.015 | 1.07 ± 0.06 | 1.13 ± 0.018 | 1.06 ± 0.093 | 0.885 ± 0.05 | 0.366 ± 0.03 | 0.247 ± 0.013 | 1.04 ± 0.059 | 1.12 ± 0.047 | 1.11 ± 0.092 | 1.09 ± 0.016 | 1.14 ± 0.086 | 1.1 ± 0.1 | 1.1 ± 0.056 | 1.05 ± 0.05 |
| MFM223 BREAST | 1.12 ± 0.069 | 1.13 ± 0.043 | 1.11 ± 0.06 | 1.15 ± 0.079 | 0.932 ± 0.071 | 0.588 ± 0.018 | 0.206 ± 0.018 | 0.179 ± 0.0092 | 1.16 ± 0.069 | 1.08 ± 0.12 | 1.09 ± 0.077 | 1.12 ± 0.024 | 1.06 ± 0.13 | 0.813 ± 0.053 | 0.336 ± 0.02 | 0.29 ± 0.014 |
| MG63 BONE | 1.04 ± 0.071 | 1.03 ± 0.027 | 1.06 ± 0.067 | 1.03 ± 0.052 | 0.582 ± 0.026 | 0.45 ± 0.024 | 0.17 ± 0.014 | 0.143 ± 0.011 | 1.02 ± 0.075 | 1.03 ± 0.06 | 1.08 ± 0.065 | 0.999 ± 0.032 | 0.965 ± 0.061 | 0.865 ± 0.065 | 0.666 ± 0.059 | 0.584 ± 0.029 |
| MHM BONE | 1.01 ± 0.021 | 0.995 ± 0.02 | 1.025 ± 0.0021 | 1.036 ± 0.0079 | 0.991 ± 0.018 | 0.885 ± 0.028 | 0.427 ± 0.011 | 0.351 ± 0.016 | 1.033 ± 0.0097 | 1.01 ± 0.024 | 1.025 ± 0.0038 | 1.074 ± 0.0044 | 1.05 ± 0.033 | 1.03 ± 0.037 | 0.981 ± 0.019 | 0.937 ± 0.05 |
| NCIH441 LUNG | 1.16 ± 0.081 | 1.11 ± 0.1 | 1.1 ± 0.027 | 1.11 ± 0.11 | 1.21 ± 0.064 | 0.997 ± 0.1 | 0.527 ± 0.027 | 0.356 ± 0.061 | 1.02 ± 0.12 | 1.11 ± 0.1 | 1.07 ± 0.11 | 1 ± 0.019 | 0.994 ± 0.083 | 1.09 ± 0.041 | 1.09 ± 0.075 | 1.01 ± 0.04 |
| NOS1 BONE | 1.09 ± 0.1 | 1.08 ± 0.089 | 1.08 ± 0.085 | 1.08 ± 0.046 | 0.6 ± 0.036 | 0.49 ± 0.11 | 0.206 ± 0.024 | 0.166 ± 0.032 | 1.09 ± 0.012 | 1.01 ± 0.079 | 1.24 ± 0.34 | 0.922 ± 0.074 | 0.826 ± 0.034 | 0.703 ± 0.021 | 0.624 ± 0.087 | 0.529 ± 0.011 |
| NY BONE | 0.996 ± 0.023 | 0.987 ± 0.018 | 1.02 ± 0.048 | 1.01 ± 0.044 | 0.825 ± 0.04 | 0.769 ± 0.003 | 0.486 ± 0.022 | 0.464 ± 0.036 | 1.01 ± 0.073 | 1.04 ± 0.048 | 1.05 ± 0.048 | 1.02 ± 0.065 | 1.04 ± 0.045 | 1.05 ± 0.018 | 0.869 ± 0.023 | 0.674 ± 0.007 |
| OS25HAL BONE | 0.995 ± 0.017 | 1.01 ± 0.035 | 0.974 ± 0.031 | 0.965 ± 0.025 | 0.94 ± 0.045 | 0.788 ± 0.04 | 0.25 ± 0.0061 | 0.196 ± 0.018 | 1.03 ± 0.026 | 1.026 ± 0.0067 | 1.01 ± 0.016 | 1.01 ± 0.05 | 0.98 ± 0.027 | 0.938 ± 0.025 | 0.895 ± 0.016 | 0.88 ± 0.021 |
| OSHN BONE | 1.07 ± 0.033 | 1.09 ± 0.044 | 1.06 ± 0.029 | 1.08 ± 0.03 | 1.12 ± 0.013 | 1.12 ± 0.026 | 0.828 ± 0.02 | 0.623 ± 0.0072 | 1.11 ± 0.034 | 1.11 ± 0.044 | 1.11 ± 0.033 | 1.11 ± 0.052 | 1.1 ± 0.02 | 1.1 ± 0.035 | 1.1 ± 0.027 | 1.07 ± 0.011 |
| PCI30 HEADNECK | 0.955 ± 0.089 | 1.07 ± 0.066 | 1.07 ± 0.063 | 1.07 ± 0.082 | 0.83 ± 0.15 | 0.549 ± 0.011 | 0.343 ± 0.014 | 0.29 ± 0.014 | 0.998 ± 0.031 | 1.08 ± 0.06 | 1.06 ± 0.082 | 1.07 ± 0.057 | 1.14 ± 0.084 | 1.11 ± 0.08 | 1.11 ± 0.073 | 1.17 ± 0.06 |
| RDES SOFT TISSUE | 1.26 ± 0.072 | 1.18 ± 0.21 | 1.17 ± 0.094 | 1.24 ± 0.14 | 1.48 ± 0.18 | 1.14 ± 0.29 | 0.453 ± 0.089 | 0.2 ± 0.03 | 1.33 ± 0.018 | 1.38 ± 0.032 | 1.15 ± 0.067 | 1.23 ± 0.083 | 1.28 ± 0.18 | 1.09 ± 0.14 | 1.09 ± 0.18 | 0.964 ± 0.25 |
| S68 BREAST | 0.792 ± 0.081 | 1.01 ± 0.26 | 1.07 ± 0.13 | 1.06 ± 0.22 | 0.574 ± 0.13 | 0.273 ± 0.029 | 0.0663 ± 0.0023 | 0.0637 ± 0.0023 | 0.924 ± 0.35 | 0.961 ± 0.079 | 0.971 ± 0.29 | 1.18 ± 0.2 | 1.09 ± 0.091 | 1.1 ± 0.26 | 0.858 ± 0.34 | 1.16 ± 0.22 |
| SAOS2 BONE | 1.18 ± 0.055 | 1.12 ± 0.043 | 1.171 ± 0.01 | 1.23 ± 0.1 | 1.08 ± 0.045 | 0.874 ± 0.0098 | 0.433 ± 0.039 | 0.36 ± 0.014 | 1.1 ± 0.024 | 1.07 ± 0.0063 | 1.17 ± 0.029 | 1.16 ± 0.047 | 1.12 ± 0.046 | 1.15 ± 0.075 | 1.062 ± 0.0029 | 1.011 ± 0.0035 |
| SCC003 HEADNECK | 1.06 ± 0.089 | 1.11 ± 0.036 | 1.08 ± 0.13 | 1.08 ± 0.11 | 0.776 ± 0.12 | 0.717 ± 0.093 | 0.366 ± 0.02 | 0.289 ± 0.04 | 1.18 ± 0.074 | 1.1 ± 0.13 | 1.16 ± 0.12 | 1.1 ± 0.032 | 1.13 ± 0.1 | 1.18 ± 0.064 | 1.13 ± 0.051 | 1.1 ± 0.098 |
| SCC36 HEADNECK | 1 ± 0.15 | 1.05 ± 0.043 | 1.12 ± 0.048 | 1.16 ± 0.074 | 1.11 ± 0.08 | 0.966 ± 0.08 | 0.497 ± 0.022 | 0.352 ± 0.015 | 1.06 ± 0.041 | 1.12 ± 0.063 | 1.12 ± 0.18 | 1.21 ± 0.064 | 1.18 ± 0.044 | 1.08 ± 0.036 | 1.01 ± 0.044 | 1.05 ± 0.025 |
| SCC47 HEADNECK | 1.07 ± 0.091 | 1.07 ± 0.019 | 1.12 ± 0.019 | 1.11 ± 0.016 | 1.01 ± 0.092 | 0.996 ± 0.085 | 0.326 ± 0.023 | 0.33 ± 0.0059 | 1.11 ± 0.068 | 1.02 ± 0.012 | 1.14 ± 0.021 | 1.14 ± 0.1 | 1.06 ± 0.024 | 1.11 ± 0.15 | 1.12 ± 0.081 | 1.08 ± 0.069 |
| SCC90 HEADNECK | 1.12 ± 0.06 | 1.12 ± 0.14 | 1.11 ± 0.018 | 1.03 ± 0.036 | 0.912 ± 0.066 | 0.722 ± 0.079 | 0.376 ± 0.014 | 0.288 ± 0.0071 | 1.12 ± 0.056 | 1.12 ± 0.071 | 1.15 ± 0.13 | 1.22 ± 0.093 | 1.18 ± 0.098 | 1.17 ± 0.048 | 1.21 ± 0.085 | 1.3 ± 0.074 |
